Assay results as given in publication PMC8464984, “AimR Adopts Preexisting Dimer Conformations for Specific Target Recognition in Lysis-Lysogeny Decisions of Bacillus Phage phi3T” (Biomolecules, 2021).

Columns and labels:
[1] = biological target: spAimR; conditions: cited from earlier work
[2] = biological target: T1, phAimR dimer (D174C-labelled) (Bacillus phage phi3T, UniProt P0DOE3, C136S/C223S/C267S/C6S/C74S/C99S/D174C); assay: smFRET titration of phAimR dimer labelled at D174C (Alexa488/Cy5); type: binding; conditions: titration of SAIRGA or target DNA, GMPRGA at 500 nM
T1 construct: 6xHis (N, cleaved yes); made in house; host or cells: Escherichia coli BL21 (DE3)
T1 sequence (P0DOE3 whole entry C6S/C74S/C99S/C136S/D174C/C223S/C267S): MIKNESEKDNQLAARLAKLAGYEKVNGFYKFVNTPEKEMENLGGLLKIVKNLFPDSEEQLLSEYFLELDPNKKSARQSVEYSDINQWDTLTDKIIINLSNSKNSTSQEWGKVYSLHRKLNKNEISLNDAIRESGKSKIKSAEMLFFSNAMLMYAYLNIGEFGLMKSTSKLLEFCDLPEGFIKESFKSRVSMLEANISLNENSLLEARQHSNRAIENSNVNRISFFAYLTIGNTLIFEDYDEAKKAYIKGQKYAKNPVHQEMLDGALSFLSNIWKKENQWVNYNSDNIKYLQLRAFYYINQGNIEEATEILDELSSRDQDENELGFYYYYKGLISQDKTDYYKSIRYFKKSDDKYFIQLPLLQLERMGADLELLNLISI
Description: (§1) The cysteine substitutions of phAimR (phAimR^C6S/C74S/C99S/C136S/C223S/C267S/N103C or phAimR^C6S/C74S/ C99S/C136S/C223S/C267S/D174C) were generated with a standard PCR-based strategy. Proteins were prepared in the same way as the wild-type phAimR. Alexa Fluor 488 C5 maleimide (Alexa488, A10254, Thermo Fisher, Shanghai, China) and Cy5 maleimide (Cy5, PA15131, GE Healthcare, Shanghai, China) were used as fluorescence donor and acceptor, respectively. A desalting column (HiPrep 26/10, GE Healthcare, Shanghai, China) was used to exchange the protein buffer into the conjugation buffer containing 20 mM phosphate (pH 7.4) and 100 mM NaCl. The protein fraction was collected in premixed Alexa488 and Cy5 dyes. The conjugation of phAimR was performed with Alexa488 and Cy5 at a molar ratio of 1:4:4. Conjugation reaction was performed for 3 h at room temperature in the dark, and the mixture was then purified using a Source-Q column (GE Healthcare, Shanghai, China). The fractions of double-labeled protein that had absorption at 280 nm, 493 nm and 640 nm were collected for smFRET data collection.
(§2) The laser confocal fluorescence microscope MicroTime 200 (PicoQuant, Berlin, Germany) was used for single-molecule imaging, and a pulsed interleaved excitation (PIE) scheme was used with two SPCM-AQRH detectors (Excelitas, Waltham, MA, USA) for recording fluorescence time traces at two different wavelengths. Two picosecond-pulsed diode laser heads (LDH-P-C-485 and LDH-P-C-640; PicoQuant, Berlin, Germany) were driven by a PDL 828 Sepia II driver (PicoQuant) at a repetition rate of 40 MHz, which allowed interleaved excitations for Alexa488 and Cy5. Each laser was coupled to the inverted microscope IX 73 (Olympus, Beijing, China) through a single-mode fiber, and was reflected by a dichroic mirror through a water-immersion objective (UPLSAPO 60×, N.A. 1.20). The protein sample was loaded onto a hybridization chamber (Thermo Fisher) glued to a glass coverslip (Thermo Fisher, Shanghai, China). The laser confocal point was set to about 50 μm above the coverslip. The excitation power at the back of the objective was about 100 μW for the 485 nm laser and about 35 μW for the 640 nm laser, as estimated with a power meter (PM20-FC; Thorlabs, Shanghai, China). Focused to a 100 μm pinhole, the fluorescence emission from the excited protein molecule was collected with the same objective. The donor and acceptor emissions were separated with a dichroic mirror (T635lpxr; Chroma, Xiamen, China). The donor emission was filtered with a 520/35 BP band pass, and the acceptor emission was filtered with a 690/70 BP band pass, before being focused onto the two SPCM-AQRH detectors.
(§3) The fluorescence outputs were recorded with a TimeHarp 260 PCI board (PicoQuant, Berlin, Germany) built into a PC workstation, and the data were stored in the time-tagged time-resolved module (PicoQuant, Berlin, Germany). The photon counts including fDex/Dem, fDex/Aem and fAex/Aem were obtained by binning the photons in 1 ms bins using SymPhoTime64 software (PicoQuant, Berlin, Germany). […] With all three fluorescence time traces recorded, the signals from the donor-only or acceptor-only protein molecules were filtered out, so as to ensure that an fDex/Aem photon only arises from a doubly labeled protein. […]

[3] = biological target: T2, phAimR dimer (N103C-labelled) (Bacillus phage phi3T, UniProt P0DOE3, C136S/C223S/C267S/C6S/C74S/C99S/N103C); assay: smFRET titration of phAimR dimer labelled at N103C (Alexa488/Cy5); type: binding; conditions: titration of SAIRGA (20-500 nM) or target DNA (500-8000 nM), GMPRGA at 500 nM
T2 construct: 6xHis (N, cleaved yes); made in house; host or cells: Escherichia coli BL21 (DE3)
T2 sequence (P0DOE3 whole entry C6S/C74S/C99S/N103C/C136S/C223S/C267S): as the sequence (P0DOE3 whole entry C6S/C74S/C99S/C136S/D174C/C223S/C267S) above, with N103C, C174D counted along it
Description: as §1, §2, §3

[4] = tested on: phAimR–target DNA interaction; assay: Electrophoretic mobility shift assay, phAimR binding to target DNA; type: biochemical, Bacillus phage phi3T; conditions: 5 nM FAM-labelled 41 bp DNA; 0, 0.037, 0.11, 0.33 and 1 M (so in the source) phAimR, peptide 10-fold molar excess; 25 mM Tris-HCl pH 8.0, 150 mM NaCl, room temperature, 10 min; three biological replicates
Description: DNA probes were annealed using boiling water with FAM-labeled primers to generate the 41 bp DNA fragment (70262-70302, 5′ […] 3′) from phi3T bacteriophage genome. The labeled probes (5 nM) were incubated with 0, 0.037, 0.11, 0.33 and 1 M phAimR proteins or peptide-bound phAimR complex (peptide is 10-fold molar excess of phAimR) in a buffer containing 25 mM Tris-HCl (pH 8.0), 5 mM MgCl2, 5 mM DTT, 0.1 mg·mL^−1 BSA, 10% glycerol and 150 mM NaCl at room temperature for 10 min. The reactions were resolved on 6% native acrylamide gels (37.5:1 acrylamide:bis-acrylamide) in 0.5× TBE buffer at 100 V for 75 min. Images of the gels were obtained using FLA5100 (Typhoon, Shanghai, China).
Figure S 6. EMSA characterize the interaction between phAimR and target DNA. The phi 3T-derived SAIRGA peptide abolishes the DNA binding ability of phAimR, whereas the SP beta-derived GMPRGA peptide has no effects. Each EMSA experiments was conducted for three biological replicates.
F ig u re S 7. Comparison of cross-correlation function GAD(τ) between apo phAimR ( b l a c k line), in complex with 500 nM SAIRGA peptide (blue line) and 8000 nM target DNA (red line). FCS data was collected forthe N103C dyes -labeled phAimR dimer. […]

[5] = biological target: T3, phAimR wild type (Bacillus phage phi3T, UniProt P0DOE3 1-378); assay: EMSA; no peptide; 5 mM MgCl2; EMSA: 25 mM Tris-HCl pH 8.0, 150 mM NaCl, 5 mM MgCl2, 5 mM DTT, 0.1 mg/mL BSA, 10% glycerol, room temperature 10 min, 5 nM probe, protein 0-1 (printed 'M', probably uM); smFRET titration buffer not in the material; conditions: protein: recombinant; tags: N-terminal 6xHis removed with drICE protease; chain copies: 2; label: FAM; blunt
T3 sequence: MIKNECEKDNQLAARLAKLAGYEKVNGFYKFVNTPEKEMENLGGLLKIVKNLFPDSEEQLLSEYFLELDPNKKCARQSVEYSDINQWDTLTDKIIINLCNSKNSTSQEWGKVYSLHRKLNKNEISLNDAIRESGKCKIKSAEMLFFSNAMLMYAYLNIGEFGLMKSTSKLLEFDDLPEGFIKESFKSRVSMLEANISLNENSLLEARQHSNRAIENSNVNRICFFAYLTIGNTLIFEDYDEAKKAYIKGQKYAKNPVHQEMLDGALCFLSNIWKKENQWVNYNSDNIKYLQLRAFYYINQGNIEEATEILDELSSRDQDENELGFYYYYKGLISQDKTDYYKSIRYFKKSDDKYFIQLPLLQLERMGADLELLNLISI

GMPRGA [SPbeta arbitrium peptide (GMPRGA), negative control, reference compound]
Kd [1]: 4.6 nM
effect on smFRET profile / conformational state enriched [2]: no perturbation on the smFRET profile of phAimR
effect on smFRET profile / conformational state enriched [3]: no perturbation on the smFRET profile of phAimR
effect on DNA binding ability of phAimR (EMSA) [4]: no effects

B1: phi3T target DNA 41 bp, FAM probe (dsDNA)
DNA 1: GAAATGTCCAGAAATTCAAAAATCAAAAAATAAGAACATGG
DNA 2: CCATGTTCTTATTTTTTGATTTTTGAATTTCTGGACATTTC
binding result [5]: binds
